Data as given in ChEMBL document CHEMBL5356956, “Optimizing and characterizing 4-methyl substituted pyrazol-3-carboxamides leading to the peripheral cannabinoid 1 receptor inverse agonist TM38837” (Bioorg Med Chem Lett, 2024).
In brackets after ≈: the same amount, converted by molar mass.

How the values were obtained:
Cannabinoid receptor 1 [1] = target: T1, Cannabinoid receptor 1 (Homo sapiens, UniProt P21554); test: Inverse agonist activity at human CB1 receptor expressed in CHO-K1 cell membrane by GTP-gamma-S assay; format: functional, cell membranes
CYP2C9 = CYP2C9 (Homo sapiens, UniProt P11712); test: Inhibition of CYP2C9 (unknown origin) at 10 uM relative to control; format: ADME
[2] = Lipophilicity, logD of compound by chromatographic analysis; format: physicochemical
[3] = Clearance in rat hepatocytes assessed per million cells; format: ADME, cell-based, Hepatocyte
[4] = Solubility of compound; format: physicochemical
Cannabinoid receptor 1 [5] = target: T1, Cannabinoid receptor 1; test: Inverse agonist activity at human CB1 receptor expressed in African green monkey COS7 cells co-expressing G-protein in presence of CP55940 by IP3 assay; format: functional, cell membranes, Membrane
[6] = Subchronic toxicity in DIO mouse assessed as reduction in body weight at 10 mg/kg, po measured after 7 days; format: organism-based; parameters: scale not given: the % may be the effect or the level left; details: in vivo, 168 h, time 7 day
Cannabinoid receptor 1 [7] = target: T1, Cannabinoid receptor 1; test: Antagonist activity at human CB1 receptor expressed in CHO-K1 cell membrane in presence of CP55940 by GTP-gamma-S assay; format: functional, cell membranes
Cannabinoid receptor 2 = Cannabinoid receptor 2 (Homo sapiens, UniProt P34972); test: Inverse agonist activity at human CB2 receptor expressed in CHO-K1 cell membrane in presence of CP55940 by GTP-gamma-S assay; format: functional, cell membranes
Chain of Cannabinoid receptor 2 (P34972 whole entry): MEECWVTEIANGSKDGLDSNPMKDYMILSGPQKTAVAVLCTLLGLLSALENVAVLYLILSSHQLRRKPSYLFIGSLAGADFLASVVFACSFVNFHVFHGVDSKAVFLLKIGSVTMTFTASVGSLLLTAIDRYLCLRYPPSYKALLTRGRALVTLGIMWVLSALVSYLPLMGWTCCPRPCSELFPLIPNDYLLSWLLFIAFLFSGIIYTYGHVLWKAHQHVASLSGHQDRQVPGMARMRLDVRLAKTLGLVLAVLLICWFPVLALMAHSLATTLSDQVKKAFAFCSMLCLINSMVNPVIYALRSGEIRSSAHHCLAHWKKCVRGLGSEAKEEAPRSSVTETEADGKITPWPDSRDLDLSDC

Chain of CYP2C9 (P11712 whole entry): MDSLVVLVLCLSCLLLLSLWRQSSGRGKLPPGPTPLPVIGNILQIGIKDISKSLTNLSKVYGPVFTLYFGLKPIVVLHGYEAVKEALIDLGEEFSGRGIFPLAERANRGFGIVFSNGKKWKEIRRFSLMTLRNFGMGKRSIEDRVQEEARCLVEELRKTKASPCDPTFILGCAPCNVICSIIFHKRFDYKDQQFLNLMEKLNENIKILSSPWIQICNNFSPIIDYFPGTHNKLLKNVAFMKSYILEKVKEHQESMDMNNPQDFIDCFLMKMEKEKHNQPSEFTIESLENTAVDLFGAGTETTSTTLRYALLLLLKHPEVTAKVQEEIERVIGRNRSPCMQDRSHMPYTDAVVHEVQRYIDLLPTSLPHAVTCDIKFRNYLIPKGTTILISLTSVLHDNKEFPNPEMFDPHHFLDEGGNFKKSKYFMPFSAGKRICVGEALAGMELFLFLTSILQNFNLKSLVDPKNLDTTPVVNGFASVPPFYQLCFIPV
T1 sequence (P21554 whole entry): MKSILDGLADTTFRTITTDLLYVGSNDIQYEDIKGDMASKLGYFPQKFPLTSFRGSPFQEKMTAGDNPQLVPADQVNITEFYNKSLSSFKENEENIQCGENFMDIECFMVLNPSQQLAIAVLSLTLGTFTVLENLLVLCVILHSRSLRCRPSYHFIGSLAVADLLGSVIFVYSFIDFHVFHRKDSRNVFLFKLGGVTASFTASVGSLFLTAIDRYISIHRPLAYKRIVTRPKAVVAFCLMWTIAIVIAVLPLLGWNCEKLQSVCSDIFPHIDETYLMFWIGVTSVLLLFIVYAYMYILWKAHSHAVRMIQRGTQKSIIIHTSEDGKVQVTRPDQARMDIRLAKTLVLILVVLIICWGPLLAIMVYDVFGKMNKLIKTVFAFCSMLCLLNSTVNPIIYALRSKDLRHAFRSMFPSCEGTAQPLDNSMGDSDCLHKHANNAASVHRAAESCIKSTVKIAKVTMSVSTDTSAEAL

Row | Structure (SMILES) | IC50 (Cannabinoid receptor 1 [1]) | inhibition at 10 µM (CYP2C9) | chromatographic logD [2] | CLH [3] | solubility [4] | IC50 (Cannabinoid receptor 1 [5]) | IC50 (Cannabinoid receptor 1 [7]) | IC50 (Cannabinoid receptor 2) | Activity [6]
1 | O=C(c1nn(-c2ccccc2Cl)c(-c2ccc(Cl)cc2)c1Cc1nn[nH]n1)N1CCC(Oc2cc(F)cc(F)c2)CC1 | 69 nM | 32% | 2.6 | 16 µL/min/1e6 cells | 317 µM (≈ 194 µg/mL) | 23 nM | – | – | –
2 | CS(=O)(=O)N1CCC(NC(=O)c2nn(-c3ccccc3Cl)c(-c3ccc(Cl)cc3)c2CC(N)=O)CC1 | 9.5 nM | – | 2.4 | 8 µL/min/1e6 cells | 61 µM (≈ 33.6 µg/mL) | – | – | – | –
3 | C[C@@H](NC(=O)c1nn(-c2ccccc2Cl)c(-c2ccc(Cl)cc2)c1Cc1nn[nH]n1)c1ccc(Br)cc1 | – | – | 2.4 | – | – | 72 nM | – | – | –
4 | O=C(c1nn(-c2ccccc2Cl)c(-c2ccc(Cl)cc2)c1Cc1nn[nH]n1)N1CCC(Oc2ccc(C(F)(F)F)cc2)CC1 | 120 nM | – | 2.9 | 12 µL/min/1e6 cells | 140 µM (≈ 89.9 µg/mL) | 23 nM | – | – | –
5 | O=C(c1nn(-c2ccccc2Cl)c(-c2ccc(Cl)cc2)c1Cc1nn[nH]n1)N1CCC(Oc2ccc(F)cc2)CC1 | 170 nM | – | 2.4 | 13 µL/min/1e6 cells | 500 µM (≈ 296 µg/mL) | 41 nM | – | – | –
6 | CCN1C(=O)OC2(CCN(C(=O)c3nn(-c4ccccc4Cl)c(-c4ccc(Cl)cc4)c3CC(N)=O)CC2)C1=O | 1.3 nM | – | 2.7 | 21 µL/min/1e6 cells | 28 µM (≈ 16 µg/mL) | – | – | – | –
7 | O=C(c1nn(-c2ccccc2Cl)c(-c2ccc(Cl)cc2)c1Cc1nn[nH]n1)N1CCC(Oc2cccc(Cl)c2)CC1 | 95 nM | 35% | 2.7 | 15 µL/min/1e6 cells | 201 µM (≈ 122 µg/mL) | 24 nM | – | – | –
8 | O=C(O)Cc1c(C(=O)N2CCC(Oc3cccc(C(F)(F)F)c3)CC2)nn(-c2ccccc2Cl)c1-c1ccc(Cl)cc1 | – | – | 2.7 | 35 µL/min/1e6 cells | 500 µM (≈ 309 µg/mL) | 24 nM | – | – | –
9 | C[C@@H](NC(=O)c1nn(-c2ccccc2Cl)c(-c2ccc(Cl)cc2)c1Cc1nn[nH]n1)c1ccc(F)c(Cl)c1 | 63 nM | – | 2.8 | – | – | 32 nM | – | – | 2.4%
10 | C[C@@H](NC(=O)c1nn(-c2ccccc2Cl)c(-c2ccc(Cl)cc2)c1Cc1nnn[nH]1)c1cccc(F)c1 | 86 nM | – | 2.1 | – | – | 64 nM | – | – | 5.2%
11 | O=C(O)Cc1c(C(=O)N2CCC(Oc3cc(F)cc(F)c3)CC2)nn(-c2ccccc2Cl)c1-c1ccc(Cl)cc1 | – | – | 3.2 | – | 171 µM (≈ 100 µg/mL) | 8 nM | – | – | –
12 | CC(C)S(=O)(=O)N1CCC(NC(=O)c2nn(-c3ccccc3Cl)c(-c3ccc(Cl)cc3)c2CC(N)=O)CC1 | 1.9 nM | – | 2.8 | 17 µL/min/1e6 cells | 33 µM (≈ 19.1 µg/mL) | – | – | – | –
13 | O=C(c1nn(-c2ccccc2Cl)c(-c2ccc(Cl)cc2)c1Cc1nn[nH]n1)N1CCC(Oc2ccc(OC(F)(F)F)cc2)CC1 | 64 nM | 48% | 3 | 14 µL/min/1e6 cells | 115 µM (≈ 75.7 µg/mL) | 26 nM | – | – | –
14 | O=C(c1nn(-c2ccccc2Cl)c(-c2ccc(Cl)cc2)c1Cc1nn[nH]n1)N1CCC(Oc2ccc(Cl)cc2)CC1 | 47 nM | 38% | 2.6 | 77 µL/min/1e6 cells | 204 µM (≈ 124 µg/mL) | 30 nM | – | – | –
15 | O=C(c1nn(-c2ccccc2Cl)c(-c2ccc(Cl)cc2)c1Cc1nn[nH]n1)N1CCC(Oc2ccc(F)c(F)c2)CC1 | 80 nM | 0% | 2.5 | 45 µL/min/1e6 cells | 421 µM (≈ 257 µg/mL) | 35 nM | – | – | < 2%
16 | Cc1c(C(=O)NN2CCCCC2)nn(-c2ccc(Cl)cc2Cl)c1-c1ccc(Cl)cc1 [RIMONABANT] | – | – | – | – | – | – | – | – | 14.5%
17 | O=C(c1nn(-c2ccccc2Cl)c(-c2ccc(Cl)cc2)c1Cc1nn[nH]n1)N1CCC(Oc2cccc(F)c2)CC1 | 130 nM | 14% | 2.4 | 45 µL/min/1e6 cells | 500 µM (≈ 296 µg/mL) | 33 nM | – | – | –
18 | O=C(O)Cc1c(C(=O)N2CCC(Oc3ccc(C(F)(F)F)cc3)CC2)nn(-c2ccccc2Cl)c1-c1ccc(Cl)cc1 | – | – | 3.1 | 17 µL/min/1e6 cells | 374 µM (≈ 231 µg/mL) | 7 nM | – | – | –
19 | O=C(O)Cc1c(C(=O)N2CCC(Oc3ccc(OC(F)(F)F)cc3)CC2)nn(-c2ccccc2Cl)c1-c1ccc(Cl)cc1 | – | – | 3.2 | – | 176 µM (≈ 112 µg/mL) | 10 nM | – | – | –
20 | N=C(Cc1c(C(=O)NN2CCCCC2)nn(-c2ccccc2Cl)c1-c1ccc(Cl)cc1)NO | – | – | 2.9 | – | – | – | – | – | –
21 | O=C(c1nn(-c2ccccc2Cl)c(-c2ccc(Cl)cc2)c1Cc1nn[nH]n1)N1CCC(Oc2cccc(F)c2F)CC1 | 110 nM | – | 2.5 | 14 µL/min/1e6 cells | 396 µM (≈ 242 µg/mL) | 61 nM | – | – | –

Second part, led by results:

Row | IC50 (Cannabinoid receptor 1 [1]) | inhibition at 10 µM (CYP2C9) | chromatographic logD [2] | CLH [3] | solubility [4] | IC50 (Cannabinoid receptor 1 [5]) | IC50 (Cannabinoid receptor 1 [7]) | IC50 (Cannabinoid receptor 2) | Structure (SMILES) | Activity [6]
22 | 30 nM | – | 2.7 | 7 µL/min/1e6 cells | – | 11 nM | – | – | O=C(O)Cc1c(C(=O)N2CCC(Oc3ccc(Cl)cc3)CC2)nn(-c2ccccc2Cl)c1-c1ccc(Cl)cc1 | –
23 | 0.4 nM | – | 2.6 | – | 70 µM (≈ 40.2 µg/mL) | – | – | – | N#Cc1cccc(C2(O)CCN(C(=O)c3nn(-c4ccccc4Cl)c(-c4ccc(Cl)cc4)c3CC(N)=O)CC2)c1 | –
24 | 0.4 nM | – | 3 | 24 µL/min/1e6 cells | 64 µM (≈ 37.2 µg/mL) | – | – | – | C[C@@H]1C[C@](O)(c2cccc(F)c2)CCN1C(=O)c1nn(-c2ccccc2Cl)c(-c2ccc(Cl)cc2)c1CC(N)=O | –
25 | 11 nM | – | 1.8 | 4 µL/min/1e6 cells | 51 µM (≈ 26.2 µg/mL) | – | – | – | CC(=O)N1CCC(NC(=O)c2nn(-c3ccccc3Cl)c(-c3ccc(Cl)cc3)c2CC(N)=O)CC1 | –
26 | – | – | 3.3 | – | 155 µM (≈ 88.1 µg/mL) | 15 nM | – | – | O=C(O)Cc1c(C(=O)N2CCC(Oc3cccc(F)c3)CC2)nn(-c2ccccc2Cl)c1-c1ccc(Cl)cc1 | < 2%
27 | 0.5 nM | – | 2.8 | – | 66 µM (≈ 37.5 µg/mL) | – | – | – | NC(=O)Cc1c(C(=O)N2CCC(O)(c3ccccc3F)CC2)nn(-c2ccccc2Cl)c1-c1ccc(Cl)cc1 | –
28 | – | – | 3.3 | 26 µL/min/1e6 cells | 107 µM (≈ 61.6 µg/mL) | 53 nM | – | – | N#Cc1cccc(OC2CCN(C(=O)c3nn(-c4ccccc4Cl)c(-c4ccc(Cl)cc4)c3CC(=O)O)CC2)c1 | –
29 | 32 nM | – | 2.7 | – | – | 2.6 nM | 8.1 nM | > 10 µM | O=C(O)Cc1c(C(=O)N2CCC(c3cccc(F)c3)CC2)nn(-c2ccccc2Cl)c1-c1ccc(Cl)cc1 | –
30 | 0.4 nM | – | 3.3 | 6 µL/min/1e6 cells | 21 µM (≈ 11.8 µg/mL) | – | – | – | C[C@@H](NC(=O)c1nn(-c2ccccc2Cl)c(-c2ccc(Cl)cc2)c1CC(N)=O)c1ccc(C(F)(F)F)nc1 | –
31 | – | – | 3.4 | 28 µL/min/1e6 cells | 83 µM (≈ 50 µg/mL) | 8 nM | – | – | O=C(O)Cc1c(C(=O)N2CCC(Oc3ccc(Cl)cc3F)CC2)nn(-c2ccccc2Cl)c1-c1ccc(Cl)cc1 | –
32 | – | – | 2.5 | – | – | – | – | > 10 µM | N=C(N)Cc1c(C(=O)Nc2ccc(F)cc2)nn(-c2ccccc2Cl)c1-c1ccc(Cl)cc1 | –
33 | 51 nM | – | 2.8 | 32 µL/min/1e6 cells | – | 10 nM | – | – | O=C(O)Cc1c(C(=O)N2CCC(Oc3cccc(Cl)c3)CC2)nn(-c2ccccc2Cl)c1-c1ccc(Cl)cc1 | –
34 | – | – | 2.9 | – | 500 µM (≈ 293 µg/mL) | 12 nM | – | – | O=C(O)Cc1c(C(=O)N2CCC(Oc3ccc(F)c(F)c3)CC2)nn(-c2ccccc2Cl)c1-c1ccc(Cl)cc1 | < 2%
35 | 0.5 nM | – | 2.8 | 16 µL/min/1e6 cells | 62 µM (≈ 35.2 µg/mL) | – | – | – | NC(=O)Cc1c(C(=O)N2CCC(O)(c3cccc(F)c3)CC2)nn(-c2ccccc2Cl)c1-c1ccc(Cl)cc1 | –
36 | 0.7 nM | – | 2.5 | – | 73 µM (≈ 41.9 µg/mL) | – | – | – | N#Cc1ccc(C2(O)CCN(C(=O)c3nn(-c4ccccc4Cl)c(-c4ccc(Cl)cc4)c3CC(N)=O)CC2)cc1 | –
37 | 130 nM | – | 2.5 | 33 µL/min/1e6 cells | 474 µM (≈ 273 µg/mL) | 23 nM | – | – | O=C(c1nn(-c2ccccc2Cl)c(-c2ccc(Cl)cc2)c1Cc1nn[nH]n1)N1CCC(c2ccccc2F)CC1 | –
38 | 2.2 nM | – | 3.5 | – | 79 µM (≈ 47 µg/mL) | – | – | – | C[C@@H]1CC(O)(c2cccc(F)c2)C[C@H](C)N1C(=O)c1nn(-c2ccccc2Cl)c(-c2ccc(Cl)cc2)c1CC(N)=O (some centres undefined) | –
39 | 0.7 nM | – | 3.6 | – | 29 µM (≈ 17.3 µg/mL) | – | – | – | C[C@@H]1CC(O)(c2ccccc2F)C[C@H](C)N1C(=O)c1nn(-c2ccccc2Cl)c(-c2ccc(Cl)cc2)c1CC(N)=O (some centres undefined) | –
40 | 0.3 nM | – | 2.9 | – | 16 µM (≈ 8.07 µg/mL) | – | – | – | N#Cc1ccc(CNC(=O)c2nn(-c3ccccc3Cl)c(-c3ccc(Cl)cc3)c2CC(N)=O)cc1 | –
41 | 0.6 nM | – | 3.2 | 65 µL/min/1e6 cells | 4 µM (≈ 2.33 µg/mL) | – | – | – | CC(C)c1noc(C2(O)CCN(C(=O)c3nn(-c4ccccc4Cl)c(-c4ccc(Cl)cc4)c3CC(N)=O)CC2)n1 | –
42 | – | – | 2.5 | – | 500 µM (≈ 293 µg/mL) | 15 nM | – | – | O=C(O)Cc1c(C(=O)N2CCC(Oc3cccc(F)c3F)CC2)nn(-c2ccccc2Cl)c1-c1ccc(Cl)cc1 | –
43 | – | – | 3.6 | – | 118 µM (≈ 67.1 µg/mL) | 6 nM | – | – | O=C(O)Cc1c(C(=O)N2CCC(Oc3ccc(F)cc3)CC2)nn(-c2ccccc2Cl)c1-c1ccc(Cl)cc1 | –
44 | 0.3 nM | – | 3.7 | 48 µL/min/1e6 cells | 9 µM (≈ 5.11 µg/mL) | – | – | – | NC(=O)Cc1c(C(=O)N2CCC(Oc3cccc(F)c3)CC2)nn(-c2ccccc2Cl)c1-c1ccc(Cl)cc1 | –
